{"source": "patent US11883407B2", "about": "“Medicament for the treatment of chronic cough” (Shionogi & Co., Ltd., priority 2018, dated 2024)", "key": {"[1]": {"experiment": "Phase II clinical trial: treatment-related and taste-related adverse events", "format": "in vivo, human", "protocol": "(§1) The trial was conducted as a placebo-controlled, multicenter, randomized, double-blind, cross-over comparative study. The study consists of a screening phase (1 to 4 weeks), a first treatment phase (15 days), a drug holiday (2 to 3 weeks), a second treatment phase (15 days) and a follow-up phase (1 week).\n(§2) Subjects (20 females, 11 males, mean age of 50.0 years) were randomly assigned to either the group receiving the compound according to Formula (I) first or the group receiving the placebo first. The subjects in the group receiving the compound according to Formula (I) first received orally tablets containing 150 mg of the compound according to Formula (I) (50 mg, 3 tablets), and the subjects in the group receiving the placebo first received orally placebo tablets (3 tablets), from the day following the first treatment phase once daily in the morning for 2 weeks.\nNext, the incidence of taste-related adverse events and side effects observed in the Phase II clinical trial is shown in Table 6.\nHere, the incidence of taste-related adverse events in Test Example 6 was examined. In this study, the compound represented by Formula (I) and the corresponding placebo were used as the investigational drugs. As the study design, a cross-over design consisting of two treatment phases was used. Each subject was assigned to either the treatment group taking 150 mg per day of the compound represented by Formula (I) during the first treatment phase and the placebo during the second treatment phase, or the treatment group taking the placebo during the first treatment phase and 150 mg per day of the compound represented by Formula (I) during the second treatment phase. The safety analysis population in this study was 31 subjects, all of whom were taking the compound represented by Formula (I) and the placebo. Among them, dysgeusia occurred in 1 subject (1/31, 3.2%) and hypogeusia occurred in another subject (1/31, 3.2%) when taking the compound represented by Formula (I). […] Therefore, taste-related adverse events occurred in 2 subjects (2/31, 6.5%). No taste-related adverse events were observed when taking the placebo.\nBased on the above results, for the proportion of subjects who experienced any of the taste-related adverse events, the study design of each study was taken into account, and as the difference between each investigational drug and placebo, the mean of differences of incidence in the same subject between the treatments and the two-sided 95% confidence interval thereof were calculated for Test Example 6, and the difference of incidence between the Gefapixant 50 mg treatment group and the placebo treatment group and the two-sided 95% confidence interval thereof were calculated for the study MK-7264-012."}, "[2]": {"tested_on": "patients with refractory/unexplained chronic cough", "experiment": "Phase II double-blind cross-over comparative study: cough frequency and Leicester Cough Questionnaire", "format": "in vivo, human", "protocol": "A Phase II double-blind cross-over comparative study was conducted in patients with refractory/unexplained chronic cough.\nIn patients with refractory/unexplained chronic cough, the placebo-adjusted change from baseline in the number of coughs per hour during daytime (7 am to 7:59 pm, which means right before 8:00 pm) after 2 weeks of administration of the compound represented by Formula (I), and its significance were evaluated. Similarly, the placebo-adjusted change from baseline in the number of coughs per hour in 24 hours after administration of the compound represented by Formula (I) and its significance were also evaluated.\nThe placebo-adjusted change is defined by the following equation.\nas §1, §2\n(For the number of coughs per hour during daytime in each of the first and second treatment phases, the mixed effect model was applied, with the common logarithms of the ratio to the baseline after 2 weeks of administration as the responses, the investigational drugs, the administration groups (group receiving the compound represented by Formula (I) first and group receiving the placebo first), and the phases as the fixed effects, the individuals as the random effects, and the common logarithms of the number of coughs per hour at baseline as the covariates.) (Results) A comparison (full analysis population) of the change in the number of coughs per hour in 24 hours is shown in Table 4.\n(For the number of coughs per hour in 24 hours in each of the first and second treatment phases, the mixed effect model was applied, with the common logarithms of the ratio to the baseline after 2 weeks of administration as the responses, the investigational drugs, administration groups (group receiving the compound represented by Formula (I) first and group receiving the placebo first), and phases as the fixed effects, the individuals as the random effects, and the common logarithms of the number of coughs per hour at baseline as the covariates.) (Results) A comparison (full analysis population) of the total change in the sum of the three domains of the Leicester Cough Questionnaire [Japanese version] is shown in Table 5.\n(For the change from baseline in the total score of the three domains of the Leicester Cough Questionnaire [Japanese version] at the end or discontinuation of each of the first and second treatment phases, the mixed effect model was applied, with the changes from the baseline as the responses, the investigational drugs, phases, and administration groups (group receiving the compound represented by Formula (I) first and group receiving the placebo first) as the fixed effects, the individuals as the random effects, and the total scores of the three domains of the Leicester Cough Questionnaire [Japanese version] at baseline as the covariates.)"}, "[3]": {"conditions": "150 mg once daily, 2 weeks, from baseline, full analysis population"}, "[4]": {"conditions": "150 mg once daily, 2 weeks, full analysis population"}}}
{"smiles": "C[C@@H](Cn1c(=O)[nH]/c(=N\\c2ccc(Oc3ccccn3)cc2)n(Cc2ccc(Cl)cc2)c1=O)C(=O)O", "note": "[compound represented by Formula (I), (2S)-3-(3-[(4-Chlorophenyl)methyl]-2,6-dioxo-4-{[4-(pyridin-2-yloxy)phenyl]amino}-3,6-dihydro-1,3,5-triazin-1(2H)-yl)-2-methyl-propanoic acid]", "values": [{"measurement": "Any Treatment-related AEs, number of events", "setting": "[1]; 150 mg once daily, N = 31", "value": "(4)"}, {"measurement": "Drug-induced liver injury, number of events", "setting": "[1]; 150 mg once daily, N = 31", "value": "(1)"}, {"measurement": "Drug-induced liver injury, patients", "setting": "[1]; 150 mg once daily, N = 31", "value": "1 (3.2) n (%)"}, {"measurement": "Dysgeusia, number of events", "setting": "[1]; 150 mg once daily, N = 31", "value": "(1)"}, {"measurement": "Dysgeusia, patients", "setting": "[1]; 150 mg once daily, N = 31", "value": "1 (3.2) n (%)"}, {"measurement": "Gastrointestinal disorders, number of events", "setting": "[1]; 150 mg once daily, N = 31", "value": "(1)"}, {"measurement": "Gastrointestinal disorders, patients", "setting": "[1]; 150 mg once daily, N = 31", "value": "1 (3.2) n (%)"}, {"measurement": "Hepatobiliary disorders, number of events", "setting": "[1]; 150 mg once daily, N = 31", "value": "(1)"}, {"measurement": "Hepatobiliary disorders, patients", "setting": "[1]; 150 mg once daily, N = 31", "value": "1 (3.2) n (%)"}, {"measurement": "Hypoaesthesia oral, number of events", "setting": "[1]; 150 mg once daily, N = 31", "value": "(1)"}, {"measurement": "Hypoaesthesia oral, patients", "setting": "[1]; 150 mg once daily, N = 31", "value": "1 (3.2) n (%)"}, {"measurement": "Hypogeusia, number of events", "setting": "[1]; 150 mg once daily, N = 31", "value": "(1)"}, {"measurement": "Nervous system disorders, number of events", "setting": "[1]; 150 mg once daily, N = 31", "value": "(2)"}, {"measurement": "Nervous system disorders, patients", "setting": "[1]; 150 mg once daily, N = 31", "value": "2 (6.5) n (%)"}, {"measurement": "Patients with any Treatment-related AEs", "setting": "[1]; 150 mg once daily, N = 31", "value": "4 (12.9) n (%)"}, {"measurement": "hypogeusia, patients", "setting": "[1]; 150 mg once daily, N = 31", "value": "1 (3.2) n (%)"}, {"measurement": "severity of taste-related adverse events", "setting": "[1]; 150 mg per day", "value": "both were mild"}, {"measurement": "ageusia", "setting": "[1]; 150 mg per day, 31 subjects", "value": "No ageusia was observed"}, {"measurement": "dysgeusia (taste change), patients", "setting": "[1]; 150 mg per day, 31 subjects", "value": 3.2, "unit": "%"}, {"measurement": "hypogeusia, patients", "setting": "[1]; 150 mg per day, 31 subjects", "value": 3.2, "unit": "%"}, {"measurement": "number of subjects with taste-related adverse events", "setting": "[1]; 150 mg per day, 31 subjects", "value": 2, "unit": "subjects"}, {"measurement": "taste-related adverse events, patients", "setting": "[1]; 150 mg per day, 31 subjects", "value": 6.5, "unit": "%"}, {"measurement": "Difference of incidence of any of the taste-related adverse events (drug − placebo)", "setting": "[1]; 150 mg, mean difference between treatments in the same subject", "value": 6.5, "unit": "%"}, {"measurement": "Drug differences, total score of the three domains of the Leicester Cough Questionnaire", "setting": "[2]; 150 mg once daily vs placebo", "value": 1.40}, {"measurement": "difference between investigational drug groups in total score of the three domains of the Leicester Cough Questionnaire", "setting": "[2]; 150 mg once daily vs placebo, significant difference", "value": 1.40, "unit": "points"}, {"measurement": "placebo-adjusted rate of decrease in the number of coughs per hour during daytime", "setting": "[2]; 150 mg once daily, 2 weeks", "value": 31.6, "unit": "%"}, {"measurement": "Estimated amount of change, total score of the three domains of the Leicester Cough Questionnaire", "setting": "[2]; 150 mg once daily, 2 weeks, from baseline", "value": 2.46}, {"measurement": "Estimated rate of change in number of coughs per hour during daytime", "setting": "[2]; [3]", "value": "−54.1", "unit": "%"}, {"measurement": "Estimated rate of change in number of coughs per hour in 24 hours", "setting": "[2]; [3]", "value": "−52.6", "unit": "%"}, {"measurement": "Rate of change adjusted by placebo, number of coughs per hour during daytime", "setting": "[2]; [4]", "value": "−31.6", "unit": "%"}, {"measurement": "Rate of change adjusted by placebo, number of coughs per hour in 24 hours", "setting": "[2]; [4]", "value": "−30.9", "unit": "%"}, {"measurement": "placebo-adjusted rate of decrease in the number of coughs per hour in 24 hours", "setting": "[2]; 150 mg once daily, 2 weeks, significant difference", "value": 30.9, "unit": "%"}]}
